# In patent US10189774B2 (priority 2006, dated 2019):
# “And” between values parts separate entries of the source, which are not always exact repeats. Identical values can stand only once. Like-named read-outs stand apart in the source and are kept apart here.
# How the values were obtained:
# [1] = system: Human Gastric Cancer HGC-27 cell; assay: cells; type: cell-based; settings: for EC50: Homo sapiens, HGC-27, 72 h, read-out: EC50, HGC-27 cell growth inhibition; for HGC-27 cell growth inhibition rate: 72 hours
# [2] = pH 7.4
# [3] = system: human myeloma cell line derived from the ascites of a patient with multiple myeloma; settings: mouse, in vivo
# [4] = physchem; settings: water
structure (smiles),measurement,setting,value
"CC(=O)O[C@H]1C(=O)[C@@]2(C)[C@H]([C@H](OC(=O)c3ccccc3)[C@]3(O)C[C@H](OC(=O)[C@H](O)[C@@H](NC(=O)c4ccccc4)c4ccccc4)C(C)=C1C3(C)C)[C@]1(OC(C)=O)CO[C@@H]1C[C@@H]2O [taxol, Taxol]",EC50,[1],~0.013 µM
same,HGC-27 cell growth inhibition rate,[1]; final concentration 0.5 nM,10.3%
same,HGC-27 cell growth inhibition rate,[1]; final concentration 1 nm,21.6%
same,HGC-27 cell growth inhibition rate,[1]; final concentration 10 nm,45.0%
same,HGC-27 cell growth inhibition rate,[1]; final concentration 25 nm,76.9%
same,HGC-27 cell growth inhibition rate,[1]; final concentration 50 nm,85.2%
same,HGC-27 cell growth inhibition rate,[1]; final concentration 100 nm,92.2%
same,HGC-27 cell growth inhibition rate,[1]; final concentration 500 nm,94.7%
same,HGC-27 cell growth inhibition rate,[1]; final concentration 5000 nm,95.8%
O=C(O)CCCc1ccc(N(CCCl)CCCl)cc1 [chlorambucil],EC50,[1],> 100 µM
same,HGC-27 cell growth inhibition rate,[1]; final concentration 2 μm,0.3%
same,HGC-27 cell growth inhibition rate,[1]; final concentration 5 μm,1.6%
same,HGC-27 cell growth inhibition rate,[1]; final concentration 25 μm,25.0%
same,HGC-27 cell growth inhibition rate,[1]; final concentration 50 μm,34.9%
same,HGC-27 cell growth inhibition rate,[1]; final concentration 75 μm,34.2%
same,HGC-27 cell growth inhibition rate,[1]; final concentration 100 μm,39.2%
same,HGC-27 cell growth inhibition rate,[1]; final concentration 200 μm,47.7%
same,HGC-27 cell growth inhibition rate,[1]; final concentration 500 μm,81.0%
same,In vitro penetration rate (apparent flux) of parent compounds,[2]; human,0.01 mg/cm^2/h
same,Life Elongation Rate,[3],127% and 198%
same,None Disease Rate,[3],2/7 and 3/7
same,Survival Period,[3],57.8 ± 1.5 days and 90.2 ± 1.9 days
"CCN(CC)CCOC(=O)CCCc1ccc(N(CCCl)CCCl)cc1 [N,N-diethylaminoethyl 4-[bis(2-chloroethyl)amino]benzenebutyrate]",EC50,[1],< 6 µM
same,HGC-27 cell growth inhibition rate,[1]; final concentration 0.5 μm,25.5%
same,HGC-27 cell growth inhibition rate,[1]; final concentration 2 μm,34.7%
same,HGC-27 cell growth inhibition rate,[1]; final concentration 5 μm,46.9%
same,HGC-27 cell growth inhibition rate,[1]; final concentration 25 μm,54.6%
same,HGC-27 cell growth inhibition rate,[1]; final concentration 50 μm,81.6%
same,HGC-27 cell growth inhibition rate,[1]; final concentration 75 μm,93.4%
same,HGC-27 cell growth inhibition rate,[1]; final concentration 100 μm,94.7%
same,HGC-27 cell growth inhibition rate,[1]; final concentration 200 μm,94.8%
same,HGC-27 cell growth inhibition rate,[1]; final concentration 500 μm,94.8%
"Br.CCN(CC)CCOC(=O)CCCc1ccc(N(CCCl)CCCl)cc1 [N,N-diethylaminoethyl 4-[bis(2-chloroethyl)amino]benzenebutyrate.HBr]",In vitro penetration rate (apparent flux) of HPPs,[2],1.01 mg/cm^2/h
same,Life Elongation Rate,[3],282% and 253%
same,None Disease Rate,[3],4/7
same,Survival Period,[3],128.5 ± 1.3 days and 115.2 ± 2.1 days
"Br.CCN(CC)CCOC(=O)[C@H](Cc1ccc(N(CCCl)CCCl)cc1)NC(C)=O [4-[bis(2-chloroethyl)amino]-N-acetyl-L-phenylalanine N,N-diethylaminoethyl ester hydrobromide]",In vitro penetration rate (apparent flux) of HPPs,[2]; human,1.10 mg/cm^2/h
same,Life Elongation Rate,[3]; hydrobromide,287% and 266%
same,None Disease Rate,[3]; hydrobromide,4/7 and 3/7
same,Survival Period,[3]; hydrobromide,130.5 ± 1.6 days and 121.2 ± 1.8 days
same,solubility,[4],300 mg/mL
CCN(CC)CCOC(=O)CCCc1ccc(N(CCS(C)(=O)=O)CCS(C)(=O)=O)cc1.Cl [diethylaminoethyl 4-[bis(2-methylsulfonylethyl)amino]benzenebutyrate.HCl],Life Elongation Rate,[3],269% and 244%
same,None Disease Rate,[3],4/7 and 3/7
same,Survival Period,[3],122.5 ± 1.7 days and 111.2 ± 1.9 days
N[C@@H](Cc1ccc(N(CCCl)CCCl)cc1)C(=O)O [melphalan],In vitro penetration rate (apparent flux) of parent compounds,[2]; human,0.01 mg/cm^2/h
same,Life Elongation Rate,[3],195% and 122%
same,Survival Period,[3],88.5 ± 1.8 days and 55.7 ± 1.3 days
Br.CCN(CC)CCOC(=O)CCCc1ccc(N(CCS(C)(=O)=O)CCS(C)(=O)=O)cc1 [diethylaminoethyl 4-[bis(2-methylsulfonylethyl)amino]benzenebutyrate•HBr],In vitro penetration rate (apparent flux) of HPPs,[2],0.94 mg/cm^2/h
CS(=O)(=O)CCN(CCS(C)(=O)=O)c1ccc(CCCC(=O)O)cc1 [4-[bis(2-methylsulfonylethyl)amino]benzenebutanoic acid],In vitro penetration rate (apparent flux) of parent compounds,[2]; human,0.01 mg/cm^2/h
